Experimental data taken from patent publication US7288654B2, “Fused-ring pyridine derivative, process for producing the same, and use” (Takeda Pharmaceutical Company Ltd, priority 2003, dated 2007).

Target: T1, human CCR5 (Homo sapiens, UniProt P51681)
T1 construct: expressed in transfected cells
Test: [125I]-RANTES binding inhibition in CCR5/CHO cells (CCR5 antagonist activity)
Details: test compound 1 μM, 100 pM [125I]-RANTES, room temperature, 40 minutes
Description: (1) Cloning of Human CCR5 Chemokine Receptor
Cloning of a CCR5 gene was conducted from human spleen cDNA by a PCR method. Using 0.5 ng of spleen cDNA (Toyobo Co., Ltd., QUICK-Clone cDNA) as a template, the PCR reaction was carried out in a DNA Thermal Cycler 480 (Perkin Elmer) using a TaKaRa EX Taq (Takara Shuzo Co., Ltd.) (reaction conditions: 30 cycles of treatments at 95° C. for 1 minute, at 60° C. for 1 minute, and at 75° C. for 5 minutes) by adding 25 pmol of primers, SEQ ID NO. 1 (sequence length: 34; sequence type: nucleic acid; number of chains: a single chain; topology: linear; sequence kind: other nucleic acid, synthetic DNA) described in Experimental Example (1) of WO 99/32100, and SEQ ID NO. 2 (sequence length: 34; sequence type: nucleic acid; number of chains: a single chain; topology: linear; sequence kind: other nucleic acid, synthetic DNA) described in Experimental Example (1) of WO 99/32100, respectively, which were prepared by referring to the base sequence of the CCR5 gene described by Samson et al. (Biochemistry 35 (11), 3362-3367 (1996)). The PCR products were subjected to agarose gel electrophoresis to collect DNA fragments of about 1.0 kb. Then, the CCR5 gene was cloned using an Original TA Cloning Kit (Funakoshi Co., Ltd.).
(2) Preparation of Plasmid for Expression of Human CCR5
The plasmids obtained above were digested with restriction enzymes XbaI (Takara Shuzo Co., Ltd.) and BamHI (Takara Shuzo Co., Ltd.), and subjected to agarose gel electrophoresis to collect DNA fragments of about 1.0 kb. The DNA fragments and a plasmid pcDNA3.1 (Funakoshi Co., Ltd.) for expression in animal cells, which was previously digested with XbaI and BamHI, were mixed and ligated by DNA Ligation Kit Ver.2 (Takara Shuzo Co., Ltd.). Transformation of E. coli JM109 competent cells (Takara Shuzo Co., Ltd.) gave plasmid pCKR5.
(3) Introduction of the Plasmid for Expression of Human CCR5 into CHO—K1 Cells and Expression Thereof
CHO—K1 cells grown in a 750 ml tissue culture flask (Becton Dickinson) using Ham's F12 medium (Nihon Pharmaceutical Co., Ltd.) containing 10% fetal bovine serum (Lifetech Oriental) were collected from the flask by using 0.5 g/L trypsin-0.2 g/L EDTA (Lifetech Oriental). The cells were then washed with PBS (Lifetech Oriental), centrifuged (1000 rpm, 5 minutes), and suspended in PBS. Next, DNA was introduced into the cells using Gene Pulser (Bio-Rad Laboratories Inc.) under the following conditions. […]
Subsequently, the Geneticin-resistant strains were cultured in the 96-well plate (Becton Dickinson), and then CCR5-expressing cells were selected from the resistant strains. […] The cells to which the ligand bound specifically, i.e., CCR5/CHO strains, were selected by measurement of radioactivity by γ-counter. […]

T1 sequence (P51681 whole entry): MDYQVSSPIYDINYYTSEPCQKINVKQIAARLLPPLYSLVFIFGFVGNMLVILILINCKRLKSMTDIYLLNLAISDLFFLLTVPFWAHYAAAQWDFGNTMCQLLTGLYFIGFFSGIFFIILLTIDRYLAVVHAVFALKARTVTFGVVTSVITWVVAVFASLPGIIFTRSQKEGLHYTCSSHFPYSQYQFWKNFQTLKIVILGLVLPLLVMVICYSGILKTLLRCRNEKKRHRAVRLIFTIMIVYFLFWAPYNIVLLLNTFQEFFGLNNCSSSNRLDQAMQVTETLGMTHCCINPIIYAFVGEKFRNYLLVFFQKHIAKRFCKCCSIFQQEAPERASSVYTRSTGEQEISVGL

| SMILES | Binding Inhibitory Ratio (%) |
| --- | --- |
| CCCCOCCOc1ccc(-c2cnc3c(c2)C=C(C(=O)Nc2ccc([S@@+]([O-])Cc4cncn4CCC)cc2)CCCN3CCC)cc1 [Compound 2, (S)-3-[4-(2-butoxyethoxy)phenyl]-10-propyl-N-[4-[[(1-propyl-1H-imidazol-5-yl)methyl]sulfinyl]phenyl]-7,8,9,10-tetrahydropyrido[2,3-b]azocine-6-carboxamide] | 93 |
| CCCCOCCOc1ccc(-c2cnc3c(c2)C=C(C(=O)Nc2ccc([S@@+]([O-])Cc4cncn4CCC)cc2)CCN3CC(C)C)cc1 [Compound 3, (S)-3-[4-(2-butoxyethoxy)phenyl]-9-isobutyl-N-[4-[[(1-propyl-1H-imidazol-5-yl)methyl]sulfinyl]aniline]-8,9-dihydro-7H-pyrido[2,3-b]azepine-6-carboxamide] | 100 |
| CCCCOCCOc1ccc(-c2cnc3c(c2)C=C(C(=O)Nc2ccc([S@@+]([O-])Cc4cncn4CCC)cc2)CCCN3CC(C)C)cc1 [Compound 1, (S)-3-[4-(2-butoxyethoxy)phenyl]-10-isobutyl-N-[4-[[(1-propyl-1H-imidazol-5-yl)methyl]sulfinyl]phenyl]-7,8,9,10-tetrahydropyrido[2,3-b]azocine-6-carboxamide] | 94 |
| CCCCOCCOc1ccc(-c2cnc3c(c2)C=C(C(=O)Nc2ccc(CN(C)C4CCOCC4)cc2)CCN3CC(C)C)cc1 [Compound 4, 3-[4-(2-butoxyethoxy)phenyl]-9-isobutyl-N-[4-[[methyl(tetrahydro-2H-pyran-4-yl)amino]methyl]phenyl]-8,9-dihydro-7H-pyrido[2,3-b]azepine-6-carboxamide] | 100 |
